Laboratory results taken from patent US7560568B2, “Thiazole compounds” (SmithKline Beecham Corporation, priority 2004, dated 2009).
pIC50: −log10 of the molar value. Read-outs that look alike come from different tables or passages of the source.

What was measured:
PLK1 kinase domain = target: T1, PLK1 kinase domain (Homo sapiens, UniProt P53350); experiment: Assay for Inhibition of PLK1 (SPA, 33P-ATP, His-tagged PLK kinase domain); format: biochemical; conditions: 2 nM PLK1 kinase domain, 1 μM ATP, 1.25 hrs at 22° C.; for IC50: read-out: Average pIC50 PLK Enzyme Inhibition (converted)
T1 construct: made in house; host or cells: baculovirus infected T. ni cells
T1 sequence (P53350 21-346): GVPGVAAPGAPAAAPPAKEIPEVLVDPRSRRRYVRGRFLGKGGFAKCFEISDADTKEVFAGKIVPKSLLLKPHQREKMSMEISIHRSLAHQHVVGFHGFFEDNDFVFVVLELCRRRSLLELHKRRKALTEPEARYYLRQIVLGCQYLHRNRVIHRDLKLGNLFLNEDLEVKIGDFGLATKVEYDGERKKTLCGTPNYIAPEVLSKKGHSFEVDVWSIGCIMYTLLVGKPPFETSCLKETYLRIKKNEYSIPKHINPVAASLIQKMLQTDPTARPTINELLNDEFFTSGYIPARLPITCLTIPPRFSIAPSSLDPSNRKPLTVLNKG
Procedure: I. Assay for Inhibition of PLK1
A. Preparation of 6× N-terminal His-tagged PLK kinase domain 6× N-terminal His-tagged PLK kinase domain (amino acids 21-346 preceded by MKKGHHHHHHD (SEQ ID:NO. 1) may be prepared from baculovirus infected T. ni cells under polyhedrin promoter control. All subsequent procedures are performed at 4° C. Cells are lysed in 25 mM HEPES, 200 mM NaCl, 25 mM imidazole; pH 8.0. The homogenate is centrifuged at 14K rpm in a SLA-1500 rotor for 40 min and the supernatant filtered through a 1.2 micron filter. The supernatant is loaded onto a Nickel chelating Sepharose (Amersham Pharmacia) column and washed with 25 mM HEPES, 500 mM NaCl, 25 mM imidazole; pH 8.0. The column is then washed with a 16.6% B step where buffer B is 25 mM HEPES, 500 mM NaCl, 300 mM imidazole; pH 8.0. Protein is eluted using a 10-column volume linear gradient from 16.6% B to 100% B. Fractions were pooled using absorbance at 280 nm. PLK is concentrated using a 10 kDa molecular weight cutoff membrane and then loaded onto a Superdex 75 gel filtration (Amersham Pharmacia) column equilibrated in 25 mM HEPES, 1 mM DTT, 500 mM NaCl; pH 8.0. Protein was pooled by absorbance at 280 nm and then quality controlled using mass spectrometry and SDS-PAGE. PLK was aliquoted and stored at −80° C.
B. Enzyme activity +/− inhibitors was determined as follows: Compounds are added to the plate (1 μl in 100% DMSO). DMSO (5% final) and EDTA (62.5 mM final in 20 μL reaction) are used as controls. Reaction Mix is prepared as follows at 22° C.: • 25 mM HEPES, pH 7.2 • 15 mM MgCl2 • 1 μM ATP • 0.05 μCi/well ^33P-γ ATP (10 Ci/mMol) • 1 μM substrate peptide (Biotin-Ahx-SFNDTLDFD) SEQ ID:No. 2. • 0.15 mg/ml BSA • 1 mM DTT • 2 nM PLK1 kinase domain (added last)
Reaction Mix (20 μl) is added per well to each well immediately upon addition of enzyme and incubated 1.25 hrs. at 22° C. The enzymatic reactions are stopped with 50 μl of SPA bead/EDTA mix (50 mM EDTA, 4.0 mg/ml Streptavidin-coated SPA beads in Standard Dulbecco's PBS (without Mg^2+ and Ca^2+), 50 μM ATP). Plates are sealed with clear plastic seals, spun at 500×g for 1 min. or settled overnight, and plates counted in Packard TopCount for 30 seconds/well.
In Table 1, +=pIC50<5; ++=pIC50 5-7; +++=pIC50>7.

[1] = test system: H460 lung tumor cell line; experiment: Methylene Blue Growth Inhibition Assay, H460; format: cell-based, human; conditions: H460, 3 days, read-out: MeB Cell Line IC50
Procedure: (§1) II. Methylene Blue Growth Inhibition Assay
(§2) Normal Human foreskin fibroblasts (HFF) and human colon (HCT116, RKO), lung (H460), prostate (PC3), and breast tumor (MCF7) cell lines are cultured in high glucose DMEM (Life Technologies) containing 10% fetal bovine serum (FBS) at 37° C. in a humidified 10% CO2, 90% air incubator. Cells are harvested using trypsin/EDTA, counted using a haemocytometer, and plated in 100 μl of the appropriate media, at the following densities, in a 96-well tissue culture plate (Falcon 3075): HFF 5,000 cells/well, HCT116 3,000 cells/well, RKO 2,500 cells/well, H460 2,000 cells/well, PC3 8,000 cells/well, MCF7 4,000 cells/well. The next day, compounds are diluted in DMEM containing 100 μg/ml gentamicin, at twice the final required concentration, from 10 mM stock solutions in DMSO. 100 μl/well of these dilutions are added to the 100 μl of media currently on the cell plates. Medium containing 0.6% DMSO is added to control wells. Compounds diluted in DMEM are added to all cell lines. The final concentration of DMSO in all wells is 0.3%. Cells are incubated at 37° C., 10% CO2 for 3 days. Medium is removed by aspiration. Cell biomass is estimated by staining cells with 80 μl per well methylene blue (Sigma M9140, 0.5% in 50:50 ethanol:water), and incubation at room temperature for at least 30 minutes. Stain is removed, and the plates rinsed by immersion in water, and air-dried. To release stain from the cells 100 μl of solubilization solution is added (1% N-lauroyl sarcosine, Sodium salt, Sigma L5125, in PBS), and plates are left at room temperature for about 30 minutes. Optical density at 620 nm is measured on a microplate reader. Percent inhibition of cell growth is calculated relative to vehicle treated control wells. Concentration of compound that inhibits 50% of cell growth (IC50) is interpolated using nonlinear regression (Levenberg-Marquardt) and the equation, y=Vmax*(1−(x/(K+x)))+Y2, where Y2=0 and “K” is equal to the IC50.
(§3) In Table 1, +=10−>30 μM; ++=1-10 μM: +++=<1 μM.

[2] = test system: HCT116 colon tumor cell line; experiment: Methylene Blue Growth Inhibition Assay, HCT116; format: cell-based, human; conditions: HCT116, 3 days, read-out: MeB Cell Line IC50
Procedure: as §1, §2, §3

[3] = test system: Normal Human foreskin fibroblasts (HFF); experiment: Methylene Blue Growth Inhibition Assay, HFF; format: cell-based; conditions: 3 days, read-out: MeB Cell Line IC50
Procedure: as §1, §2, §3

[4] = test system: MCF7 breast tumor cell line; experiment: Methylene Blue Growth Inhibition Assay, MCF7; format: cell-based, human; conditions: MCF7, 3 days, read-out: MeB Cell Line IC50
Procedure: as §1, §2, §3

[5] = test system: PC3 prostate tumor cell line; experiment: Methylene Blue Growth Inhibition Assay, PC3; format: cell-based, human; conditions: PC3, 3 days, read-out: MeB Cell Line IC50
Procedure: as §1, §2, §3

[6] = test system: RKO colon tumor cell line; experiment: Methylene Blue Growth Inhibition Assay, RKO; format: cell-based, human; conditions: 3 days, read-out: MeB Cell Line IC50
Procedure: as §1, §2, §3

Row | Molecule | IC50 (PLK1 kinase domain) [µM] | pIC50 ([1]; Homo sapiens, NCI-H460, 72 h) | pIC50 ([2]; Homo sapiens, HCT-116, 72 h) | pIC50 ([3]; Homo sapiens, 72 h) | pIC50 ([4]; Homo sapiens, 72 h) | pIC50 ([5]; Homo sapiens, 72 h) | pIC50 ([6]; Homo sapiens, 72 h) | Average pIC50 PLK Enzyme Inhibition (PLK1 kinase domain) | pIC50 [1] | pIC50 [2] | pIC50 [3] | pIC50 [4] | pIC50 [5] | pIC50 [6]
1 | COc1cc2ncn(-c3nc(OCc4ccccc4C(F)(F)F)c(C(N)=O)s3)c2cc1OC [Example 6, 2-[5,6-Bis(methyloxy)-1H-benzimidazol-1-yl]-4-({[2-(trifluoromethyl)phenyl]-methyl}oxy)-1,3-thiazole-5-carboxamide] | < 0.1 | 5.00 to 6.00 | 5.00 to 6.00 | < 5.00 | 5.00 to 6.00 | 5.00 to 6.00 | 5.00 to 6.00 |  |  |  |  |  |  | 
2 | NC(=O)c1sc(-n2cnc3ccccc32)nc1OCc1ccccc1C(F)(F)F [Example 1, 2-(1H-Benzimidazol-1-yl)-4-({[2-(trifluoromethyl)phenyl]methyl}-oxy)-1,3-thiazole-5-carboxamide] | < 0.1 | < 5.00 | < 5.00 | < 5.00 | < 5.00 | < 5.00 | < 5.00 |  |  |  |  |  |  | 
3 | NC(=O)c1sc(-n2cnc3cc(Cl)ccc32)nc1OCc1ccccc1C(F)(F)F [Example 2B, 2-(5-chloro-1H-benzimidazol-1-yl)-4-({[2-(trifluoromethyl)phenyl]methyl}oxy)-1,3-thiazole-5-carboxamide] | 0.1 to 10 | < 5.00 | < 5.00 | < 5.00 | < 5.00 | < 5.00 | < 5.00 |  |  |  |  |  |  | 
4 | NC(=O)c1sc(-n2cnc3ccc(Cl)cc32)nc1OCc1ccccc1C(F)(F)F [Example 2A, 2-(6-Chloro-1H-benzimidazol-1-yl)-4-({[2-(trifluoromethyl)phenyl]methyl}oxy)-1,3-thiazole-5-carboxamide] | < 0.1 | < 5.00 | < 5.00 | < 5.00 | 5.00 to 6.00 | < 5.00 | 5.00 to 6.00 |  |  |  |  |  |  | 
5 | Cc1cc2ncn(-c3nc(OCc4ccccc4C(F)(F)F)c(C(N)=O)s3)c2cc1C [Example 5, 2-(5,6-Dimethyl-1H-benzimidazol-1-yl)-4-({[2-(trifluoromethyl)phenyl]methyl}oxy)-1,3-thiazole-5-carboxamide] | 0.1 to 10 | < 5.00 | < 5.00 | < 5.00 | < 5.00 | < 5.00 | < 5.00 |  |  |  |  |  |  | 
6 | NC(=O)c1sc(-n2cnc3ccc(F)cc32)nc1OCc1ccccc1C(F)(F)F [Example 4, 2-(6-Fluoro-1H-benzimidazol-1-yl)-4-({[2-(trifluoromethyl)phenyl]methyl}oxy)-1,3-thiazole-5-carboxamide] | 0.1 to 10 | < 5.00 | < 5.00 | < 5.00 | < 5.00 | < 5.00 | < 5.00 |  |  |  |  |  |  | 
7 | 2-(6-Methoxy-1H-benzimidazol-1-yl)-4-({[2-(trifluoromethyl)phenyl]methyl}oxy)-1,3-thiazole-5-carboxamide and 2-(5-methoxy-1H-benzimidazol-1-yl)-4-({[2-(trifluoromethyl)phenyl]methyl}oxy)-1,3-thiazole-5-carboxamide [Example 3] |  |  |  |  |  |  |  | +++ (+++=pIC50>7) | < 5.00 | < 5.00 | < 5.00 | < 5.00 | < 5.00 | < 5.00
